Assay results taken from patent US20240140931A1, “TRICYCLIC COMPOUNDS AND USES THEREOF” (HUTCHMED LIMITED, priority 2021, published 2024).

Key:
[1] = target: Human full-length SHP2 recombinant protein (Homo sapiens (Human), UniProt Q06124); experiment: Assay of full-length SHP2 phosphatase activity; format: biochemical; conditions: DiFMUP substrate, with activating peptide
Procedure, shortened: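 Readout: DiFMUP hydrolysis fluorescence (355/460 nm) after 60 min at 25 °C, following 30 min RT preincubation of compound with peptide-activated full-length human SHP2. Controls were 1% DMSO with or without enzyme; IC50 by four-parameter logistic fit.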

[2] = system: pERK1/2 (Thr202/Tyr204) in Miapaca2 cells; experiment: Assay of intracellular pERK1/2 (Thr202/Tyr204) phosphorylation; format: cell-based; conditions: Homo sapiens, MIA PaCa-2, 2 h, pERK1/2 (Thr202/Tyr204) HTRF
Procedure, shortened: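 HTRF read-out (665/615 nm) of phospho-ERK1/2 Thr202/Tyr204 in lysates from Miapaca2 cells exposed for 2 h to 3-fold compound dilutions at 0.5% final DMSO. Controls: lysis buffer without cells and DMSO-treated cells; IC50 from four-parameter logistic fit.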

Miapaca2 3D spheroids = experiment: Assay of cell proliferation on Miapaca2 3D spheroids; format: cell-based; conditions: Homo sapiens, MIA PaCa-2, 120 h, CellTiter-Glo 3D, 5 days treatment
Procedure, shortened: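 Miapaca2 spheroids (300 cells/well, formed by day 2) exposed 5 days at 37 °C to compound in 3-fold dilution series, 0.1% DMSO final. Viability by CellTiter-Glo 3D luminescence; survival % relative to day-2 and day-7 DMSO controls, IC50 from four-parameter logistic fit.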

Sequence of Human full-length SHP2 recombinant protein (Q06124 whole entry): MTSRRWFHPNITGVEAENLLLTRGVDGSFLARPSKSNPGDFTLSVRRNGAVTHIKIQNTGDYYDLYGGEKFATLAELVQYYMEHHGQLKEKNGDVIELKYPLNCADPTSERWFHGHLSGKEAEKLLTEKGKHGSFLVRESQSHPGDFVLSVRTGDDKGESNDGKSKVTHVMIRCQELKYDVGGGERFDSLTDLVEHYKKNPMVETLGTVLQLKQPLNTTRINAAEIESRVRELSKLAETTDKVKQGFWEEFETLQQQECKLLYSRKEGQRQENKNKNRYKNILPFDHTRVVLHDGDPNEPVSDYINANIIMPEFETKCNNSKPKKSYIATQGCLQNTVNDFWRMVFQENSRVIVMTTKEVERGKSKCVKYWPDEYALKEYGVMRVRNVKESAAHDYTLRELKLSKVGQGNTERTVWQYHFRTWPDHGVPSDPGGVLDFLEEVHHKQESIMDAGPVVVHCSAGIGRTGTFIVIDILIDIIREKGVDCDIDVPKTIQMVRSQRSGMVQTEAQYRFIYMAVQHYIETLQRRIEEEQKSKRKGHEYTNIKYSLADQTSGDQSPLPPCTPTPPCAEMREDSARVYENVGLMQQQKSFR

SMILES	IC50 [1] [nM]	IC50 [2] [nM]	IC50 (Miapaca2 3D spheroids) [nM]
CCNC(=O)C#Cc1ccc2c(c1)[C@@H](N)C1(CCN(c3cnc(Sc4c(F)cnc(N)c4Cl)cn3)CC1)C2 [Compound 269]	0.9	7	3
NC(=O)C#Cc1ccc2c(c1)[C@@H](N)C1(CCN(c3cnc(Sc4ccnc(N)c4Cl)cn3)CC1)C2 [Compound 270]	0.4	2	0.6
Cc1nc(Sc2ccnc(N)c2Cl)cnc1N1CCC2(CC1)Cc1ccc(C#CC(N)=O)cc1[C@H]2N [Compound 271]	1	4	2
CCNC(=O)C#Cc1ccc2c(c1)[C@@H](N)C1(CCN(c3cnc(Sc4cc(F)nc(N)c4Cl)cn3)CC1)C2 [Compound 273]	1	5	2
Cc1nc(Sc2ccnc(N)c2F)c(N)nc1N1CCC2(CC1)Cc1ccc(C#CC(N)=O)cc1[C@H]2N [Compound 274]	1	6	3
NC(=O)C#Cc1ccc2c(c1)[C@@H](N)C1(CCN(c3cnc(Sc4ccnc(N)c4F)c(N)n3)CC1)C2 [Compound 275]	0.5	2	2
Cc1nc(Sc2ccnc(N)c2Cl)c(N)nc1N1CCC2(CC1)Cc1ccc(C#CC(N)=O)cc1[C@H]2N [Compound 276]	2	4	3
Cc1nc(N2CCC3(CC2)Cc2ccc(C#CC(N)=O)cc2[C@H]3N)cnc1Sc1ccnc(N)c1Cl [Compound 277]	1	11	5
CCNC(=O)C#Cc1ccc2c(c1)[C@@H](N)C1(CCN(c3ncc(Sc4ccnc(N)c4Cl)nc3C#N)CC1)C2 [Compound 278]	5	34	16
Nc1nccc(Sc2cnc(N3CCC4(CC3)Cc3ccc(C#CC(=O)O)cc3[C@H]4N)cn2)c1Cl [Compound 279, (S)-3-(1-amino-1′-(5-((2-amino-3-chloropyridin-4-yl)thio)pyrazin-2-yl)-1,3-dihydrospiro[indene-2,4′-piperidin]-6-yl)propiolic acid]	0.4	183	42
Cc1nc(N2CCC3(CC2)Cc2ccc(C#CC(N)=O)cc2[C@H]3N)cnc1Sc1cc(N)nc(Cl)c1Cl [Compound 280]	11	35	35
Cc1nc(N2CCC3(CC2)Cc2ccc(C#CC(N)=O)cc2[C@H]3N)cnc1Sc1ccnc(N)n1 [Compound 281]	10	167	24
C#Cc1ccc2c(c1)[C@@H](N)C1(CCN(c3nc(N)c(Sc4ccnc(N)c4Cl)c(=O)n3C)CC1)C2 [Compound 282]	1	3	2
Cc1nc(Sc2ccnc(N)c2Cl)c(N)nc1N1CCC2(CC1)Cc1ccc(C#CC(=O)O)cc1[C@H]2N [Compound 283]	1	737	243
C#Cc1ccc2c(c1)[C@@H](N)C1(CCN(c3nc(N)c(-c4cn(C)c5ncccc45)c(=O)n3C)CC1)C2 [Compound 284]	2	5	4
CC#Cc1ccc2c(c1)[C@@H](N)C1(CCN(c3nc(N)c(-c4cn(C)c5ncccc45)c(=O)n3C)CC1)C2 [Compound 286]	2	10	9

SMILES	IC50 [1] [nM]	IC50 [2] [nM]	IC50 (Miapaca2 3D spheroids) [nM]
CC#Cc1ccc2c(c1)[C@@H](N)C1(CCN(c3ncc(Sc4ccnc(N)c4Cl)c(=O)n3C)CC1)C2 [Compound 288]	2	4	2
CC#Cc1ccc2c(c1)[C@@H](N)C1(CCN(c3nc(N)c(Sc4ccnc(N)c4Cl)c(=O)n3C)CC1)C2 [Compound 289]	2	4	2
CCNC(=O)C#Cc1ccc2c(c1)[C@@H](N)C1(CCN(c3ncc(Sc4ccnc(N)c4Cl)nc3C)CC1)C2 [Compound 290]	1	4	0.3
COCC#Cc1ccc2c(c1)[C@@H](N)C1(CCN(c3ncc(Sc4ccnc(N)c4Cl)c(=O)n3C)CC1)C2 [Compound 291]	1	9	0.3
CNC(=O)C#Cc1ccc2c(c1)[C@@H](N)C1(CCN(c3cnc(Sc4ccnc(N)c4Cl)cn3)CC1)O2 [Compound 292]	0.9	6	1
CCNC(=O)C#Cc1ccc2c(c1)[C@@H](N)C1(CCN(c3cnc(Sc4ccnc(N)c4Cl)cn3)CC1)O2 [Compound 293]	1	5	0.9
C#Cc1ccc2c(c1)[C@@H](N)C1(CCN(c3ncc(Sc4ccnc(N)c4Cl)c(=O)n3CC)CC1)C2 [Compound 294]	1	18	9
C#Cc1ccc2c(c1)[C@@H](N)C1(CCN(c3ncc(Sc4ccnc(N)c4Cl)c(=O)n3C)CC1)O2 [Compound 295]	2	22	4
Nc1nccc(Sc2cnc(N3CCC4(CC3)Cc3ccc(C#CC(=O)NC5CC5)cc3[C@H]4N)cn2)c1Cl [Compound 296]	0.3	2	0.7
COCCNC(=O)C#Cc1ccc2c(c1)[C@@H](N)C1(CCN(c3cnc(Sc4ccnc(N)c4Cl)cn3)CC1)C2 [Compound 297]	0.3	1	0.3
COCCNC(=O)C#Cc1ccc2c(c1)[C@@H](N)C1(CCN(c3cnc(Sc4ccnc(N)c4F)cn3)CC1)C2 [Compound 298]	0.3	1	0.3
C#Cc1ccc2c(c1)[C@@H](N)C1(CCN(c3ncc(Sc4ccnc(N)c4Cl)c(=O)n3C)CC1)C2 [Compound 299, (S)-5-((2-amino-3-chloropyridin-4-yl)thio)-2-(1-amino-6-ethynyl-1,3-dihydrospiro[indene-2,4′-piperidin]-1′-yl)-3-methylpyrimidin-4(3H)-one]	1	2	1
COC(=O)C#Cc1ccc2c(c1)[C@@H](N)C1(CCN(c3cnc(Sc4ccnc(N)c4Cl)cn3)CC1)C2 [Compound 300]	1	13	16
COCCN(C)C(=O)C#Cc1ccc2c(c1)[C@@H](N)C1(CCN(c3cnc(Sc4ccnc(N)c4Cl)cn3)CC1)C2 [Compound 301]	0.4	5	1
CN(C)C(=O)C#Cc1ccc2c(c1)[C@@H](N)C1(CCN(c3cnc(Sc4ccnc(N)c4Cl)cn3)CC1)C2 [Compound 302]	0.4	5	1
